System: 349418-098-R-PDC complex spheroid viability
Assay: Anticancer human tumor 349418-098-R-PDC patient-derived lung adenocarcinoma cell line growth inhibition [RAS]
Details: for IC50: curve of first compound; for viability, T/C: stronger effect = lower value
Method in brief: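 Agents were tested in combination matrices in half-log decrements from a top concentration at or near clinical Cmax (10 microM if undetermined). Targets were multi-cell spheroids of tumour lines plus HUVEC and MSC stromal cells.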

[1] = second compound 0.000949 µM, first compound 0.0316 µM
[2] = second compound 0.000949 µM, first compound 0.1 µM
[3] = second compound 0.000949 µM, first compound 0.316 µM
[4] = second compound 0.000949 µM, first compound 1 µM
[5] = second compound 0.000949 µM, first compound 3.16 µM
[6] = second compound 0.000949 µM, first compound 10 µM
[7] = second compound 0.003 µM, first compound 0.0316 µM
[8] = second compound 0.003 µM, first compound 0.1 µM
[9] = second compound 0.003 µM, first compound 0.316 µM
[10] = second compound 0.003 µM, first compound 1 µM
[11] = second compound 0.003 µM, first compound 3.16 µM
[12] = second compound 0.003 µM, first compound 10 µM
[13] = second compound 0.00949 µM, first compound 0.0316 µM
[14] = second compound 0.00949 µM, first compound 0.1 µM
[15] = second compound 0.00949 µM, first compound 0.316 µM
[16] = second compound 0.00949 µM, first compound 1 µM
[17] = second compound 0.00949 µM, first compound 3.16 µM
[18] = second compound 0.00949 µM, first compound 10 µM
[19] = second compound 0.03 µM, first compound 0.0316 µM
[20] = second compound 0.03 µM, first compound 0.1 µM
[21] = second compound 0.03 µM, first compound 0.316 µM
[22] = second compound 0.03 µM, first compound 1 µM
[23] = second compound 0.03 µM, first compound 3.16 µM
[24] = second compound 0.03 µM, first compound 10 µM
[25] = second compound 0.0949 µM, first compound 0.0316 µM
[26] = second compound 0.0949 µM, first compound 0.1 µM
[27] = second compound 0.0949 µM, first compound 0.316 µM
[28] = second compound 0.0949 µM, first compound 1 µM
[29] = second compound 0.0949 µM, first compound 3.16 µM
[30] = second compound 0.0949 µM, first compound 10 µM
[31] = second compound 0.3 µM, first compound 0.0316 µM
[32] = second compound 0.3 µM, first compound 0.1 µM
[33] = second compound 0.3 µM, first compound 0.316 µM
[34] = second compound 0.3 µM, first compound 1 µM
[35] = second compound 0.3 µM, first compound 3.16 µM
[36] = second compound 0.3 µM, first compound 10 µM
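Further: spheroids exposed to compound for seven days before viability readout.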

CCC(CC)c1cc(NC2CCC(N)C2)n2nccc2n1 (stereo unspecified) + CCn1c(-c2cc(N3CCN(C)CC3)cnc2C(C)OC)c2c3cc(ccc31)-c1csc(n1)CC(NC(=O)C1CC1C)C(=O)N1CCCC(N1)C(=O)OCC(C)(C)C2
IC50 (second compound 0.000949 µM): 0.825 µM
IC50 (second compound 0.003 µM): 1.05 µM
IC50 (second compound 0.00949 µM): 1.14 µM
IC50 (second compound 0.03 µM): 0.842 µM
IC50 (second compound 0.0949 µM): 0.985 µM
IC50 (second compound 0.3 µM): 0.986 µM
viability, T/C [1]: 96.1%
viability, T/C [2]: 91.7%
viability, T/C [3]: 98.7%
viability, T/C [4]: 40.8%
viability, T/C [5]: 2.44%
viability, T/C [6]: 2.65%
viability, T/C [7]: 103%
viability, T/C [8]: 106%
viability, T/C [9]: 96.5%
viability, T/C [10]: 52.7%
viability, T/C [11]: 2.69%
viability, T/C [12]: 2.78%
viability, T/C [13]: 94.8%
viability, T/C [14]: 94.3%
viability, T/C [15]: 90%
viability, T/C [16]: 56.3%
viability, T/C [17]: 2.15%
viability, T/C [18]: 2.27%
viability, T/C [19]: 107%
viability, T/C [20]: 103%
viability, T/C [21]: 94.1%
viability, T/C [22]: 42.8%
viability, T/C [23]: 2.26%
viability, T/C [24]: 2.15%
viability, T/C [25]: 119%
viability, T/C [26]: 103%
viability, T/C [27]: 99.8%
viability, T/C [28]: 50.7%
viability, T/C [29]: 2.85%
viability, T/C [30]: 2.9%
viability, T/C [31]: 116%
viability, T/C [32]: 107%
viability, T/C [33]: 108%
viability, T/C [34]: 49.4%
viability, T/C [35]: 2.38%
viability, T/C [36]: 2.44%

Cc1nc(N2CCC3(CC2)COC(C)C3N)c(CO)nc1Sc1ccnc(N)c1Cl (stereo unspecified) + CCn1c(-c2cc(N3CCN(C)CC3)cnc2C(C)OC)c2c3cc(ccc31)-c1csc(n1)CC(NC(=O)C1CC1C)C(=O)N1CCCC(N1)C(=O)OCC(C)(C)C2
IC50 (second compound 0.000949 µM): > 10 µM
IC50 (second compound 0.003 µM): > 10 µM
IC50 (second compound 0.00949 µM): > 10 µM
IC50 (second compound 0.03 µM): > 10 µM
IC50 (second compound 0.0949 µM): > 10 µM
IC50 (second compound 0.3 µM): > 10 µM
viability, T/C [1]: 90.4%
viability, T/C [2]: 99.3%
viability, T/C [3]: 88.4%
viability, T/C [4]: 102%
viability, T/C [5]: 97.2%
viability, T/C [6]: 95.7%
viability, T/C [7]: 114%
viability, T/C [8]: 103%
viability, T/C [9]: 104%
viability, T/C [10]: 103%
viability, T/C [11]: 100%
viability, T/C [12]: 95.8%
viability, T/C [13]: 111%
viability, T/C [14]: 89.2%
viability, T/C [15]: 97.1%
viability, T/C [16]: 112%
viability, T/C [17]: 114%
viability, T/C [18]: 115%
viability, T/C [19]: 96%
viability, T/C [20]: 106%
viability, T/C [21]: 105%
viability, T/C [22]: 99.1%
viability, T/C [23]: 106%
viability, T/C [24]: 90.6%
viability, T/C [25]: 104%
viability, T/C [26]: 114%
viability, T/C [27]: 79%
viability, T/C [28]: 92%
viability, T/C [29]: 102%
viability, T/C [30]: 104%
viability, T/C [31]: 109%
viability, T/C [32]: 106%
viability, T/C [33]: 100%
viability, T/C [34]: 107%
viability, T/C [35]: 115%
viability, T/C [36]: 115%

NC1c2ccccc2OC12CCN(c1cnc3c(N4CCCc5ncccc54)n[nH]c3n1)CC2 (stereo unspecified) + CCn1c(-c2cc(N3CCN(C)CC3)cnc2C(C)OC)c2c3cc(ccc31)-c1csc(n1)CC(NC(=O)C1CC1C)C(=O)N1CCCC(N1)C(=O)OCC(C)(C)C2
IC50 (second compound 0.000949 µM): > 10 µM
IC50 (second compound 0.003 µM): > 10 µM
IC50 (second compound 0.00949 µM): > 10 µM
IC50 (second compound 0.03 µM): > 10 µM
IC50 (second compound 0.0949 µM): > 10 µM
IC50 (second compound 0.3 µM): > 10 µM
viability, T/C [1]: 91.7%
viability, T/C [2]: 98.8%
viability, T/C [3]: 111%
viability, T/C [4]: 90.2%
viability, T/C [5]: 86.5%
viability, T/C [6]: 76.8%
viability, T/C [7]: 98.1%
viability, T/C [8]: 120%
viability, T/C [9]: 105%
viability, T/C [10]: 102%
viability, T/C [11]: 95.6%
viability, T/C [12]: 76.8%
viability, T/C [13]: 116%
viability, T/C [14]: 102%
viability, T/C [15]: 97.1%
viability, T/C [16]: 98%
viability, T/C [17]: 90.7%
viability, T/C [18]: 73.9%
viability, T/C [19]: 113%
viability, T/C [20]: 102%
viability, T/C [21]: 111%
viability, T/C [22]: 107%
viability, T/C [23]: 102%
viability, T/C [24]: 72.3%
viability, T/C [25]: 114%
viability, T/C [26]: 88%
viability, T/C [27]: 110%
viability, T/C [28]: 107%
viability, T/C [29]: 116%
viability, T/C [30]: 78.5%
viability, T/C [31]: 103%
viability, T/C [32]: 105%
viability, T/C [33]: 113%
viability, T/C [34]: 93.9%
viability, T/C [35]: 104%
viability, T/C [36]: 64.8%

Reference: PubChem BioAssay AID2060904 (Molecular Pharmacology Branch, DTP, NCI, 2025)
